From US12157741B2, “Macrocyclic inhibitors of DYRK1A” (DANA-FARBER CANCER INSTITUTE, INC., priority 2018, dated 2024)
Where two headings read alike, the source gives them in different places.

Columns and labels:
Format in all cases: binding
various enzymes [1] = target: various enzymes (Homo sapiens, UniProt Q8NEV4); settings: compound 1 uM
Experimental: (§1) Ambit profiling was conducted in accordance with the manufacturer's instructions.

various enzymes [2] = target: various enzymes (Homo sapiens, UniProt Q15569); settings: compound 1 uM
Sequence of various enzymes (Homo sapiens, UniProt Q15569) (Q15569 whole entry): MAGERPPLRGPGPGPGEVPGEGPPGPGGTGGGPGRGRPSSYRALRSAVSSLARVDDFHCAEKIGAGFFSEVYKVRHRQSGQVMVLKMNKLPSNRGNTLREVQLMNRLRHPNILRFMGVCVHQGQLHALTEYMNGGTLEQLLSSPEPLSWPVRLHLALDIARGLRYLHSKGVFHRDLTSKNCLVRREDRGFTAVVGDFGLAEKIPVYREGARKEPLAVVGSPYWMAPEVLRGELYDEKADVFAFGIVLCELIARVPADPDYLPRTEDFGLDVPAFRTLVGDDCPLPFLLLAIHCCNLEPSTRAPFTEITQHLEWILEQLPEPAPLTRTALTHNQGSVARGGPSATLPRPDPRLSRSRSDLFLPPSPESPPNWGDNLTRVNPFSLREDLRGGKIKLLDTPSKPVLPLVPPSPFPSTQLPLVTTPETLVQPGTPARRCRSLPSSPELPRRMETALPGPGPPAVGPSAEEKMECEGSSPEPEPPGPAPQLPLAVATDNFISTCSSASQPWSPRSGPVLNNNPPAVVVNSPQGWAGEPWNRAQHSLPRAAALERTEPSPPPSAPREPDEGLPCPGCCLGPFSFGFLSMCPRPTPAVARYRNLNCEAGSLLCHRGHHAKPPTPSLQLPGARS
Experimental: as §1

various enzymes [3] = target: T1, various enzymes (Homo sapiens, UniProt Q96L34); settings: compound 1 uM
T1 sequence (Q96L34 1-752): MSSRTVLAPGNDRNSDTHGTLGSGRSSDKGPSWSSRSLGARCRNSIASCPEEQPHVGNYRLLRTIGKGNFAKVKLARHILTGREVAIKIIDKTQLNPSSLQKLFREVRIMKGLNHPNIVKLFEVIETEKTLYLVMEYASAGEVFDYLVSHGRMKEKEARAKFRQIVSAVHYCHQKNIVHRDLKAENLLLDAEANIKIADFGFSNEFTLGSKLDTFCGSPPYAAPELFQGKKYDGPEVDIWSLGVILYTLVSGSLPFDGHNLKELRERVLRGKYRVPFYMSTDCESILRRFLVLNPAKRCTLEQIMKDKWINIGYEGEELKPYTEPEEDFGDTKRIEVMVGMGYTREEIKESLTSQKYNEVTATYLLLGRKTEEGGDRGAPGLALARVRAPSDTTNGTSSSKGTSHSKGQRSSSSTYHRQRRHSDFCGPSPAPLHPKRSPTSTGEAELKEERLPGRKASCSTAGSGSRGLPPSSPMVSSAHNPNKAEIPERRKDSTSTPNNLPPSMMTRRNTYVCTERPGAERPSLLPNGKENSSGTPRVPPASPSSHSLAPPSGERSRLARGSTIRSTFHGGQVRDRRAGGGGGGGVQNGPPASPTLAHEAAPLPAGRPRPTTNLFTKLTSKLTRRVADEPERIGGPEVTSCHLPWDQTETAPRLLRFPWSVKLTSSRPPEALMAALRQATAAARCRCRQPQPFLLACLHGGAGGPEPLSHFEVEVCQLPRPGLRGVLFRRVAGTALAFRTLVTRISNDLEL
Experimental: as §1

various enzymes [4] = target: various enzymes (Homo sapiens, UniProt P78362); settings: compound 1 uM
Sequence of various enzymes (Homo sapiens, UniProt P78362) (P78362 whole entry): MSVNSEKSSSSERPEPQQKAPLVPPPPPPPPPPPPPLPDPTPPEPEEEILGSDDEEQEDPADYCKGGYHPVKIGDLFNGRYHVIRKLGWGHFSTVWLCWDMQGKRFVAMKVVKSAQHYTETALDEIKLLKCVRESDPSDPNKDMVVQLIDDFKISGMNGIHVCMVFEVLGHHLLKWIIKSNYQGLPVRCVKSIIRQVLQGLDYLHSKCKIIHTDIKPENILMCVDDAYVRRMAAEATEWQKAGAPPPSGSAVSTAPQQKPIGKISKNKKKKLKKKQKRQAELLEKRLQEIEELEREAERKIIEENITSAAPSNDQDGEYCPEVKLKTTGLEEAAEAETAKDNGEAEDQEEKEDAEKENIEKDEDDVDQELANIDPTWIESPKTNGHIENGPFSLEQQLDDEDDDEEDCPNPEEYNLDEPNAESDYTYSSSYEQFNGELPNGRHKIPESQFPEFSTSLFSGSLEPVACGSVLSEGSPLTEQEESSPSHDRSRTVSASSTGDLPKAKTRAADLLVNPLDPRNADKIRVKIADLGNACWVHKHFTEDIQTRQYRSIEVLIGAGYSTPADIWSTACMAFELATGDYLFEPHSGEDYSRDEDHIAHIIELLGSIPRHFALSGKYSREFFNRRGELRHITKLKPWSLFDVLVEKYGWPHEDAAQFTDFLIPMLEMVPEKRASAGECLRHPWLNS
Experimental: as §1

various enzymes [5] = target: various enzymes (Homo sapiens, UniProt Q96GD4); settings: compound 1 uM
Experimental: as §1

various enzymes [6] = target: various enzymes (Homo sapiens, UniProt Q9P0L2); settings: compound 1 uM
Experimental: as §1

various enzymes [7] = target: various enzymes (Homo sapiens, UniProt Q9UEE5); settings: compound 1 uM
Experimental: as §1

various enzymes [8] = target: various enzymes (Homo sapiens, UniProt P51617); settings: compound 1 uM
Sequence of various enzymes (Homo sapiens, UniProt P51617) (P51617 whole entry): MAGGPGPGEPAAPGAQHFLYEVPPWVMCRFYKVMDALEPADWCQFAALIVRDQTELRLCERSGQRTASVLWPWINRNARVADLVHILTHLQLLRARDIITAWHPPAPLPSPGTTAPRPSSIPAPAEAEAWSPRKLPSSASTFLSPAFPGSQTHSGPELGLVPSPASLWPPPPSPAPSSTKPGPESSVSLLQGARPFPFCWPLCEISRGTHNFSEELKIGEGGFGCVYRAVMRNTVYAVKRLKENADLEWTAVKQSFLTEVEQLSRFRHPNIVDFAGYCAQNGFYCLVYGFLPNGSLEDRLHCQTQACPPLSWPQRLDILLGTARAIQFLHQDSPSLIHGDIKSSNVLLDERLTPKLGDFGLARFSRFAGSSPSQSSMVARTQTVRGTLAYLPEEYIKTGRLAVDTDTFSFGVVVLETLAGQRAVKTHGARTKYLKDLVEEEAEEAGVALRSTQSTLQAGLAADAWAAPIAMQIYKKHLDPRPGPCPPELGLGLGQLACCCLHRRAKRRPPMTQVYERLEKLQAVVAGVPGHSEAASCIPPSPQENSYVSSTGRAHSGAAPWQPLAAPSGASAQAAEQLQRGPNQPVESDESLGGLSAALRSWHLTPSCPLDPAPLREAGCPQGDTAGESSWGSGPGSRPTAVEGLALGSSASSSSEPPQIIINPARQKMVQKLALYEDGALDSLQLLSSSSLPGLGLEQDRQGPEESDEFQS
Experimental: as §1

various enzymes [9] = target: various enzymes (Homo sapiens, UniProt P36897); settings: compound 1 uM
Experimental: as §1

various enzymes [10] = target: various enzymes (Homo sapiens, UniProt P00533, DEL746-750); settings: compound 1 uM
Experimental: as §1

various enzymes [11] = target: various enzymes (Homo sapiens, UniProt Q9H2K8); settings: compound 1 uM
Experimental: as §1

various enzymes [12] = target: various enzymes (Homo sapiens, UniProt P30291); settings: compound 1 uM
Experimental: as §1

various enzymes [13] = target: various enzymes (Homo sapiens, UniProt P21802); settings: compound 1 uM
Experimental: as §1

various enzymes [14] = target: various enzymes (Homo sapiens, UniProt P00533, L858R/T790M)
Experimental: as §1

various enzymes [15] = target: various enzymes (Homo sapiens, UniProt P11802); settings: compound 1 uM
Sequence of various enzymes (Homo sapiens, UniProt P11802) (P11802 whole entry): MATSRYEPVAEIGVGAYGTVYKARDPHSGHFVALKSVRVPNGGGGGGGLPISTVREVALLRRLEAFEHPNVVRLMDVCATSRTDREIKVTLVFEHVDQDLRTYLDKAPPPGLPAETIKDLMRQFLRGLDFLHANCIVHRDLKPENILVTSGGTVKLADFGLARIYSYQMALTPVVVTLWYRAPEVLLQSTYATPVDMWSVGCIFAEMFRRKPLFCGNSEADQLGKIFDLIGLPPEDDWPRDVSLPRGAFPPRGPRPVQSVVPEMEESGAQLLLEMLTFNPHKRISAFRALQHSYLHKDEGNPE
Experimental: as §1

various enzymes [16] = target: various enzymes (Homo sapiens, UniProt Q16288); settings: compound 1 uM
Experimental: as §1

various enzymes [17] = target: various enzymes (Homo sapiens, UniProt Q8TDX7); settings: compound 1 uM
Sequence of various enzymes (Homo sapiens, UniProt Q8TDX7) (Q8TDX7 whole entry): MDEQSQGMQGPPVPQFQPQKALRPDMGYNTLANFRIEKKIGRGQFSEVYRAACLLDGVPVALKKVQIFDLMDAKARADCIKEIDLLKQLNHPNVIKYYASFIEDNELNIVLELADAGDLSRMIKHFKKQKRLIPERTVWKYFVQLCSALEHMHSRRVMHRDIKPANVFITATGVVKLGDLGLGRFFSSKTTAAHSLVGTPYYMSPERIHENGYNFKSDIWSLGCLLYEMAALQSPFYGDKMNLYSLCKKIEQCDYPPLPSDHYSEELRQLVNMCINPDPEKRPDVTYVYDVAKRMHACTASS
Experimental: as §1

various enzymes [18] = target: various enzymes (Homo sapiens, UniProt P23443); settings: compound 1 uM
Experimental: as §1

various enzymes [19] = target: various enzymes (Homo sapiens, UniProt Q12866); settings: compound 1 uM
Experimental: as §1

various enzymes [20] = target: various enzymes (Homo sapiens, UniProt Q9NYL2); settings: compound 1 uM
Sequence of various enzymes (Homo sapiens, UniProt Q9NYL2) (Q9NYL2 whole entry): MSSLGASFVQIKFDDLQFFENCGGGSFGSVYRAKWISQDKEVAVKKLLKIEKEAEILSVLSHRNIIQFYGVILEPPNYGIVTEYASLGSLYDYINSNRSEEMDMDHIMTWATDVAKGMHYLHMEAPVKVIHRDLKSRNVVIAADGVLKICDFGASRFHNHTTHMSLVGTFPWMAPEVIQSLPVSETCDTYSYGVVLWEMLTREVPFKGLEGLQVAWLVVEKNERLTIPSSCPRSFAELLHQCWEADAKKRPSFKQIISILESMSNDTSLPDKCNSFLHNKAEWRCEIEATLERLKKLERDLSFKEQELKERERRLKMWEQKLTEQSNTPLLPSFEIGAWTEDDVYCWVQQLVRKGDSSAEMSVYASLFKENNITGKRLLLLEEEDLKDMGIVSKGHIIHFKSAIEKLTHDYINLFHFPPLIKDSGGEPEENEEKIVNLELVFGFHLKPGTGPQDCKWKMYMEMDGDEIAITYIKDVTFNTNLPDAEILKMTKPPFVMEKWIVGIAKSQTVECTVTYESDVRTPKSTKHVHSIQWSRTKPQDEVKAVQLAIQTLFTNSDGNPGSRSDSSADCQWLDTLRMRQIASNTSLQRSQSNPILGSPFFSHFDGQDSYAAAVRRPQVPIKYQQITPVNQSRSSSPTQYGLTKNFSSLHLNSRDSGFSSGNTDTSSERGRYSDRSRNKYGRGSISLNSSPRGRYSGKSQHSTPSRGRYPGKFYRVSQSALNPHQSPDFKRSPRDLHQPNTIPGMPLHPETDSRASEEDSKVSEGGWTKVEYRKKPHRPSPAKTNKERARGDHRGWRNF
Experimental: as §1

various enzymes [21] = target: various enzymes (Homo sapiens, UniProt P54646); settings: compound 1 uM
Sequence of various enzymes (Homo sapiens, UniProt P54646) (P54646 whole entry): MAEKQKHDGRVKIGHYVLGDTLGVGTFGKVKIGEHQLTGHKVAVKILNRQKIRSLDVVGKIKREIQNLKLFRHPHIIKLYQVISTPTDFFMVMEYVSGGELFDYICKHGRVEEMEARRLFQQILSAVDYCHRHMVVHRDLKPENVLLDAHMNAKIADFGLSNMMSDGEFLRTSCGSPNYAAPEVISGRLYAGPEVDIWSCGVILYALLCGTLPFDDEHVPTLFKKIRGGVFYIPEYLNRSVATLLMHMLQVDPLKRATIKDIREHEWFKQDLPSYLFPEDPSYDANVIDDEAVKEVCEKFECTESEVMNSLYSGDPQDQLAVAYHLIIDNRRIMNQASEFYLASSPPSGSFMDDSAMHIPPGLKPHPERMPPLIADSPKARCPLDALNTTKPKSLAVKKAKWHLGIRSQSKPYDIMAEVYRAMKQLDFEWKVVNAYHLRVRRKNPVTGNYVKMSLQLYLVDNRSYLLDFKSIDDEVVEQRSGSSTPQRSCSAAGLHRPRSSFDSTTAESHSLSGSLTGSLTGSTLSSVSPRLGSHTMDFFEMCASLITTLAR
Experimental: as §1

various enzymes [22] = target: various enzymes (Homo sapiens, UniProt Q9BUB5); settings: compound 1 uM
Experimental: as §1

various enzymes [23] = target: various enzymes (Homo sapiens, UniProt P00519, Q252H); settings: compound 1 uM
Experimental: as §1

various enzymes [24] = target: various enzymes (Homo sapiens, UniProt P36888, D835H)
Experimental: as §1

various enzymes [25] = target: various enzymes (Homo sapiens, UniProt P42336); settings: compound 1 uM
Sequence of various enzymes (Homo sapiens, UniProt P42336) (P42336 whole entry): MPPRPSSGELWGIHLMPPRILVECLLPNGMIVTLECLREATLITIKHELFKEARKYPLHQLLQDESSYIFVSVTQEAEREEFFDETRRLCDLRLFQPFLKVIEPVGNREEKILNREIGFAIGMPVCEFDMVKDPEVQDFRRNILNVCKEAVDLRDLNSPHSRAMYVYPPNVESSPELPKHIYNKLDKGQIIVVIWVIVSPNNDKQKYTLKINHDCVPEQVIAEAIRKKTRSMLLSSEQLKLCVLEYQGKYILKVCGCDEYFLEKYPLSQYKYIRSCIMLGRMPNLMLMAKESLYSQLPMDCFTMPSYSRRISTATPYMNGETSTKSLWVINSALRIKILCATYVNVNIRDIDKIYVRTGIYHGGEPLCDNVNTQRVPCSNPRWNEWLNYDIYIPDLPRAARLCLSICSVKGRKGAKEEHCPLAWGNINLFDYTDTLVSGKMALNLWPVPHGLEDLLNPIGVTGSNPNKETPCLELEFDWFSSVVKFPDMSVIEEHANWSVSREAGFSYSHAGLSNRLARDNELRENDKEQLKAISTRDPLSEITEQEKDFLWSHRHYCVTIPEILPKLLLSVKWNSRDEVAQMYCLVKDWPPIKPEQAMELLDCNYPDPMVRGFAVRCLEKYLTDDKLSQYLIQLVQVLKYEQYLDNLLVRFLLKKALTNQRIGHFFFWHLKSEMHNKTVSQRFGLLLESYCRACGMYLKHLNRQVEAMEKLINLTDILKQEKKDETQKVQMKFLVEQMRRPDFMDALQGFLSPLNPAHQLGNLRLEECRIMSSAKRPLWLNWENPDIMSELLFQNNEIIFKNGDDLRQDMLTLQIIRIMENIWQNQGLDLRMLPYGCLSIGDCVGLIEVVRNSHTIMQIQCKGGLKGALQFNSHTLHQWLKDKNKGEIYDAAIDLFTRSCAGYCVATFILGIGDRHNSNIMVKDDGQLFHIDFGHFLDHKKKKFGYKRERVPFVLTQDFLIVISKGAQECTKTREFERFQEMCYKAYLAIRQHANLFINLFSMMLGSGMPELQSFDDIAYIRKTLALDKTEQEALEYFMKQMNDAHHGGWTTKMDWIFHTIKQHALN
Experimental: as §1

various enzymes [26] = target: various enzymes (Homo sapiens, UniProt P36888, D835Y)
Experimental: as §1

various enzymes [27] = target: various enzymes (Homo sapiens, UniProt Q14004); settings: compound 1 uM
Experimental: as §1

SMILES: CC(C)N1Cc2nn(C)cc2-c2cnc3[nH]cc(c3c2)-c2cn(nc2C(F)(F)F)CCCC1=O [Compound 45, (Z)-5-isopropyl-31-methyl-13-(trifluoromethyl)-11H,21H,31H-5-aza-2(3,5)-pyrrolo[2,3-b]pyridina-1(4,1),3(4,3)-dipyrazolacyclononaphan-6-one]
- Ambit profiling: MYO3A (various enzymes [1]): 23
- Ambit profiling: TESK1 (various enzymes [2]): 99
- Ambit profiling: MARK4 (various enzymes [3]): 28
- Ambit profiling: SRPK2 (various enzymes [4]): 100
- Ambit profiling: AURKB (various enzymes [5]): 5.7
- Ambit profiling: MARK1 (various enzymes [6]): 33
- Ambit profiling: DRAK1 (various enzymes [7]): 100
- Ambit profiling: IRAK1 (various enzymes [8]): 1.4
- Ambit profiling: TGFBR1 (various enzymes [9]): 87
- Ambit profiling: EGFR(E746-A750del) (various enzymes [10]): 6.4
- Ambit profiling: TAOK3 (various enzymes [11]): 22
- Ambit profiling: WEE1 (various enzymes [12]): 73
- Ambit profiling: FGFR2 (various enzymes [13]): 9.5
- Ambit profiling: EGFR(L858R, T790M) (various enzymes [14]; compound 1 uM): 27
- Ambit profiling: CDK4 (various enzymes [15]): 100
- Ambit profiling: CDK4-cyclinD1 (various enzymes [15]): 53
- Ambit profiling: CDK4-cyclinD3 (various enzymes [15]): 100
- Ambit profiling: TRKC (various enzymes [16]): 0.1
- Ambit profiling: NEK7 (various enzymes [17]): 97
- Ambit profiling: S6K1 (various enzymes [18]): 2.5
- Ambit profiling: MERTK (various enzymes [19]): 0.6
- Ambit profiling: ZAK (various enzymes [20]): 45
- Ambit profiling: AMPK-alpha2 (various enzymes [21]): 87
- Ambit profiling: MKNK1 (various enzymes [22]): 100
- Ambit profiling: ABL1(Q252H)-nonphosphorylated (various enzymes [23]): 3.2
- Ambit profiling: ABL1(Q252H)-phosphorylated (various enzymes [23]): 20
- Ambit profiling: FLT3(D835H) (various enzymes [24]; compound 1 uM): 1.6
- Ambit profiling: PIK3CA (various enzymes [25]): 100
- Ambit profiling: FLT3(D835Y) (various enzymes [26]; compound 1 uM): 1.3
- Ambit profiling: CDC2L5 (various enzymes [27]): 99

SMILES: COc1c2c(nn1C)CN(C(C)C)C(=O)CCCn1cc(c(C(F)(F)F)n1)-c1c[nH]c3ncc-2cc13 [Compound 50, (Z)-5-isopropyl-35-methoxy-31-methyl-13-(trifluoromethyl)-11H,21H,31H-5-aza-2(3,5)-pyrrolo[2,3-b]pyridina-1(4,1),3(4,3)-dipyrazolacyclononaphan-6-one]
- Ambit profiling: MYO3A (various enzymes [1]): 11
- Ambit profiling: TESK1 (various enzymes [2]): 69
- Ambit profiling: MARK4 (various enzymes [3]): 55
- Ambit profiling: SRPK2 (various enzymes [4]): 74
- Ambit profiling: AURKB (various enzymes [5]): 18
- Ambit profiling: MARK1 (various enzymes [6]): 39
- Ambit profiling: DRAK1 (various enzymes [7]): 100
- Ambit profiling: IRAK1 (various enzymes [8]): 2.1
- Ambit profiling: TGFBR1 (various enzymes [9]): 36
- Ambit profiling: EGFR(E746-A750del) (various enzymes [10]): 5.9
- Ambit profiling: TAOK3 (various enzymes [11]): 63
- Ambit profiling: WEE1 (various enzymes [12]): 38
- Ambit profiling: FGFR2 (various enzymes [13]): 11
- Ambit profiling: EGFR(L858R, T790M) (various enzymes [14]): 19
- Ambit profiling: CDK4 (various enzymes [15]): 88
- Ambit profiling: CDK4-cyclinD1 (various enzymes [15]): 76
- Ambit profiling: CDK4-cyclinD3 (various enzymes [15]): 81
- Ambit profiling: TRKC (various enzymes [16]): 0
- Ambit profiling: NEK7 (various enzymes [17]): 68
- Ambit profiling: S6K1 (various enzymes [18]): 8.6
- Ambit profiling: MERTK (various enzymes [19]): 3.5
- Ambit profiling: ZAK (various enzymes [20]): 58
- Ambit profiling: AMPK-alpha2 (various enzymes [21]): 57
- Ambit profiling: MKNK1 (various enzymes [22]): 83
- Ambit profiling: ABL1(Q252H)-nonphosphorylated (various enzymes [23]): 2.4
- Ambit profiling: ABL1(Q252H)-phosphorylated (various enzymes [23]): 1.6
- Ambit profiling: FLT3(D835H) (various enzymes [24]): 2.8
- Ambit profiling: PIK3CA (various enzymes [25]): 83
- Ambit profiling: FLT3(D835Y) (various enzymes [26]): 0.7
- Ambit profiling: CDC2L5 (various enzymes [27]): 89
